Measurements published in US8222008B2, “Methods and compositions for treating cancer” (The Administrators of The Tulane Educational Fund, priority 2003, dated 2012).

Tests used:
black mice = assay: Toxicity study of CDME in mice; assay type: in vivo, mouse; settings: intraperitoneal injection, 500 μL in PBS
Protocol: CDME was evaluated in mice for cystine generation in response to varying doses as follows: A stock solution of CDME in PBS was prepared having a concentrations of 1.8 g CDME/500 μL PBS. The stock solution was diluted to generate solutions for administration. 500 μL of diluted solutions were injected intraperitoneally into black mice (body mass ˜0.03 kg). All injections were performed in duplicate.
Mice given effective dosages of 5,000 mg CDME/kg body mass or higher died. […] The CDME-injected mice contained close to 100-fold increases in intralysosomal cystine.

T-47D (ER+) = assay: Apoptosis in breast cancer cell lines, CaspACE assay with flow cytometry; assay type: cell-based, human; settings: CDME 500 μM, 16 hours
Description: (§1) The apoptotic effect of CDME was compared to that of tamoxifen using the CaspACE™ assay system (Promega) and conventional flow cytometry techniques.
(§2) All cell lines were obtained from the American Type Culture Collection, P.O. Box 1549, Manassas, Va., 20108 unless otherwise indicated. The cell lines studied were estrogen receptor-negative breast cancer cell lines MDA-MB-231 (ATCC Accession No. HTB-26) and MDA-MB-468 (ATCC Accession No. HTB-132) and estrogen receptor-positive breast cancer cell lines, MCF-7 (ATCC Accession No. HTB-22) and T-47D (ATCC Accession No. HTB-133).
(§3) All cell lines were grown on the bottom of 12-well flasks in Gibco RPMI-1640, until they reached the confluency of about 50%. After that, the medium was exchanged with DMEM (Sigma, D-5030), supplemented with 10% charcoal-treated FBS.
(§4) After four days (at confluency of about 75%), cells were treated by exposure to either CDME (500 μM) or tamoxifen (100 μM) or neither for 16 hours at 37° C. CaspACE™ assay analysis of the treated and control cells was performed as described in Example 2 and measured via flow cytometry. Note that the dosage of tamoxifen was a maximum positive control dose, higher than that normally administered for chemotherapy.

MCF-7 (ER+) = assay: as above; assay type: cell-based, human; settings: CDME 500 μM, 16 hours
Description: as §1, §2, §3, §4

MDA-MB-468 (ER−) = assay: as above; assay type: cell-based, human; settings: CDME 500 μM, 16 hours
Description: as §1, §2, §3, §4

MDA-MB-231 (ER−) = assay: as above; assay type: cell-based, human; settings: CDME 500 μM, 16 hours
Description: as §1, §2, §3, §4

normal fibroblasts = assay: Apoptosis after lysosomal cystine loading, CaspACE assay (FIG. 1); assay type: cell-based, human; settings: 0.5 mM CDME 1 hour pretreatment, then TNF-a or UV, 16 hours in CDME-containing medium; control rate 7.2+/−1.3%
Protocol: 1. The CaspACE Assay • CaspACE (Promega) is an FITC-conjugated cell-permeable form of the pan-caspase inhibitor zVAD-Fmk, which binds to activated caspase(s). Cells were incubated in FITC-VAD-Fmk-containing medium (10 μM for 30 minutes at 37° C.), washed, and then fixed in 10% buffered formalin (30 minutes at room temperature) before analysis. The cells were visually enumerated by fluorescence microscopy, scoring a minimum of five fields (250 to 300 cells) for fluorescence in triplicate followed by counting all cells in the same field by light microscopy, with a minimum of 750 cells scored per condition. The apoptosis rate is the total number of cells that fluoresce divided by the total cells in the field.
Normal fibroblast lysosomes were loaded with cystine by the addition of 0.5 mM cystine dimethylester (CDME, Sigma) to normal culture medium for 1 hour before treatment (Pisoni, R L, et al, 1992 Somat. Cell. Mol. Genet., 18:1-6). The cells were treated with apoptotic triggers, leaving CDME in the medium to prevent lysosomal cystine loss, and then analyzed for apoptosis.
The lysosomal cystine content of normal fibroblasts was also altered as follows. Normal fibroblasts also at passage 7-13 were pretreated with 0.5 mM CDME for 1 hour, increasing the cystine content of their lysosomes to the cystinotic range (0.47 to 1.95 nmol of cystine per mg of protein). […]

GM005399 cells = assay: Apoptosis on serum withdrawal, CaspACE; assay type: cell-based, human; settings: serum withdrawal and CDME
Protocol: Induction of apoptosis and assays for its detection were performed using commercially available reagents. Normal and cystinotic fibroblasts were matched for passage number (±3) and cell density, and then exposed to an apoptotic trigger. One apoptotic trigger used was TNF-a (30 ng/mL) with actinomycin D (2.5 μg/mL) for 16 hours. Another trigger was anti-Fas antibody (500 ng/mL) with actinomycin D (2.5 μg/mL) for 16 hours. A third trigger to induce apoptosis in the cells was Ultraviolet B light (60 mJ). See, e.g., previously described protocols of Aggarwal B B, 1992 Immunol. Ser., 56:61-78; Higuchi M. et al, 1995 J. Immunol. Meth., 178:173-181; Itoh N, et al, 1991 Cell, 66:233-243; Itoh N. et al, 1993 J. Biol. Chem., 268:10932-10937. Serum withdrawal was also used as a apoptotic stimulus (Lieberthal W, et al, 1998 Am. J. Physiol. 275:F691-F702; Verzola D. et al, 2001 Exp Nephrol., 9:366-371; Iglesias J. et al, 1999 Am. J. Physiol. 277:F711-F712; Kulkarni G V, et al, 1994 J. Cell Sci., 107:1169-1179), in which case the cells were incubated in F12 medium without serum for 24 hours and then analyzed for apoptosis.
1. […] The cells were visually enumerated by fluorescence microscopy, scoring a minimum of five fields (250 to 300 cells) for fluorescence in triplicate followed by counting all cells in the same field by light microscopy, with a minimum of 750 cells scored per condition. […]

COC(=O)[C@@H](N)CSSC[C@H](N)C(=O)OC [CDME, cystine dimethyl ester]
effective dosage at which mice died (black mice): ≥ 5,000 mg CDME/kg body mass
percent of apoptotic cells (±S.D.) (T-47D (ER+)): 7.78 ± 4.19%
percent of apoptotic cells (±S.D.) (MCF-7 (ER+)): 6.16 ± 1.80%
percent of apoptotic cells (±S.D.) (MDA-MB-468 (ER−)): 44.88 ± 13.52%
percent of apoptotic cells (±S.D.) (MDA-MB-231 (ER−)): 99.32 ± 0.22%
apoptotic rate after exposure to CDME (normal fibroblasts): 18.7+/−5.4%
% Apoptosis (GM005399 cells): 37.3%
